Source: publication PMC8515607 (ACS Omega, 2021)
Where two headings read alike, the source gives them in different places.

Assays:
BALB/3T3 = assay: In vitro antiproliferative activity, SRB assay, normal fibroblasts BALB/3T3; assay type: cell-based; conditions: Mus musculus, BALB/3T3, normal murine embryonic fibroblasts, 72 h, mean ± SD
Description: (§1) The A549 and MCF7 cell lines were purchased from the European Collection of Authenticated Cell Cultures (ECACC, Salisbury, U.K., 86012804 and 86012803). The LoVo cell line was purchased from the American Type Culture Collection (CCL-229, ATCC, Manassas, VA), and LoVo/DX by courtesy of Prof. E. Borowski (Technical University of Gdańsk, Gdańsk, Poland). The BALB/3T3 cell line was purchased from the American Type Culture Collection (CCL-163, ATCC, Manassas, VA). All of the cell lines are maintained in the Institute of Immunology and Experimental Therapy (IIET), Wroclaw, Poland.
(§2) A549 cells were cultured in a mixture of OptiMEM and Roswell Park Memorial Institute (RPMI) 1640 (1:1) medium (IIET, Wroclaw, Poland), supplemented with 10% fetal bovine serum HyClone (GE Healthcare) and 2 mM L-glutamine (Sigma-Aldrich, Germany). MCF7 cells were cultured in a mixture of Eagle’s medium (IIET, Wroclaw, Poland), supplemented with 10% fetal bovine serum, 2 mM L-glutamine, and insulin (Sigma-Aldrich, Germany). LoVo and LoVo/DX cells were cultured in F12K medium (Corning), supplemented with 10% fetal bovine serum HyClone (GE Healthcare) and 0.1 μg/mL doxorubicin (Accord) for LoVo/DX. BALB/3T3 fibroblasts were cultured in Dulbecco’s medium (Gibco), supplemented with 10% fetal bovine serum (GE Healthcare) and 2 mM L-glutamine (Sigma-Aldrich, Germany). All culture media contained antibiotics: 100 U/mL penicillin (Polfa-Tarchomin, Poland) and 0.1 mg/mL streptomycin (Sigma-Aldrich, Germany). All cell lines were cultured during entire experiment in humid atmosphere at 37 °C and 5% CO2.
(§3) All cell lines were exposed to each tested agent at different concentrations in the range 100–0.00001 μg/mL for 72 h. The cells were also exposed to the reference drug cisplatin (Teva Pharmaceuticals, Poland) and doxorubicin (Accord Healthcare Limited, U.K.). Additionally, all cell lines were exposed to dimethyl sulfoxide (DMSO) (solvent used for tested compounds) (POCh, Poland) at concentrations corresponding to those present in tested agents dilutions. After 72 h, sulforhodamine B (SRB) assay was performed.[57]
(§4) After 72 h of incubation with the tested compounds, the cells were fixed in situ by gently adding cold 50% trichloroacetic acid (TCA) (POCh, Poland) and were incubated at room temperature for 1 h. Then, the wells were washed four times with water and air-dried. Next, 0.1% solution of sulforhodamine B (Sigma-Aldrich, Germany) in 1% acetic acid (POCh, Poland) was added to each well and the plates were incubated at room temperature for 0.5 h. After incubation time, unbound dye was removed by washing plates four times with 1% acetic acid, whereas stain bound to cells was solubilized with 10 mM Tris base (Sigma-Aldrich, Germany). Absorbance of each solution was read at Synergy H4 Hybrid Multi-Mode Microplate Reader (BioTek Instruments) at the 540 nm wavelength.
(§5) IC50 values were calculated in Excel sheet using formulas adapted by Mateusz Psurski fromCheburator 0.4, Dmitry Nevozhay software (version 1.2.0 software by Dmitry Nevozhay, 2004–2014, http://www.cheburator.nevozhay.com, freely available) for each experiment.[58] Compounds at each concentration were tested in triplicate in a single experiment, and each experiment was repeated at least three times independently.

A549 = assay: cells; assay type: cell-based, human; conditions: for IC50: Homo sapiens, A549, 72 h, read-out: A549 IC50 (nM), 72 h exposure, SRB, mean ± SD; for A549 SI: selectivity index = IC50 BALB/3T3 / IC50 A549
Description: as §1, §2, §3, §4, §5

LoVo = assay: cells; assay type: cell-based, human; conditions: for IC50: Homo sapiens, LoVo, 72 h, read-out: LoVo IC50 (nM); for LoVo SI: selectivity index = IC50 BALB/3T3 / IC50 LoVo
Description: as §1, §2, §3, §4, §5

MCF-7 = assay: cells; assay type: cell-based, human; conditions: for IC50: Homo sapiens, MCF7, 72 h, read-out: MCF-7 IC50 (nM); for MCF-7 SI: selectivity index = IC50 BALB/3T3 / IC50 MCF-7
Description: as §1, §2, §3, §4, §5

LoVo/DX = assay: cells; assay type: cell-based, human; conditions: for LoVo/DX RI: resistance index = IC50 LoVo/DX / IC50 LoVo; for LoVo/DX SI: selectivity index = IC50 BALB/3T3 / IC50 LoVo/DX
Description: as §1, §2, §3, §4, §5

[1] = system: A549, MCF-7, and LoVo cells; assay: Antiproliferative activity, values quoted jointly for three tumor lines; assay type: cell-based, human; conditions: summary of Table 1; for IC50: Homo sapiens, read-out: IC50 against A549, MCF-7, and LoVo cells (span over the three lines)
Description: as §1, §2, §3, §4, §5

[2] = Homo sapiens, LoVo/DX, 72 h, read-out: LoVo/DX IC50 (nM), 72 h exposure, SRB, mean ± SD
[3] = read-out: LoVo/DX IC50, 72 h exposure, SRB, mean ± SD

Structure (SMILES) | IC50 (BALB/3T3) [nM] | IC50 (A549) [nM] | A549 SI (A549) | IC50 (LoVo) [nM] | LoVo SI (LoVo) | IC50 (MCF-7) [nM] | MCF-7 SI (MCF-7) | IC50 (LoVo/DX; [2]) [nM] | IC50 (LoVo/DX; [3]) [nM] | LoVo/DX RI (LoVo/DX) | LoVo/DX SI (LoVo/DX) | IC50 [1] [nM] | SI for A549, MCF-7, and LoVo cells (span) [1]
CCCCc1cn([C@H]2CCc3cc(OC)c(OC)c(OC)c3-c3ccc(NC)c(=O)cc32)nn1 [Compound 7] | 9.9 ± 3.7 | 6.4 ± 3.9 | 1.5 | 3.1 ± 1.3 | 3.2 | 5.4 ± 3.7 | 1.8 | < 30 | 23 ± 11 | 7.4 | 0.4 | 3.1 to 6.4 | 
C=CCOC(=O)NCc1cn([C@H]2CCc3cc(OC)c(OC)c(OC)c3-c3ccc(NC)c(=O)cc32)nn1 [Compound 39] | 9.1 ± 2.6 | 3.3 ± 0.5 | 2.8 | 4.3 ± 0.6 | 2.1 | 2.6 ± 0.5 | 3.5 | 440 ± 64 |  | 100 | <0.1 |  | 2.1–3.9
CNc1ccc2c(cc1=O)[C@@H](n1cc(C(=O)OCc3ccc(F)cc3)nn1)CCc1cc(OC)c(OC)c(OC)c1-2 [Compound 21] | 25 ± 5.6 | 21 ± 7.7 | 1.2 | 21 ± 6.4 | 1.2 | 21 ± 8 | 1.2 | 530 ± 110 |  | 25 | 0.1 | 10 to 25 | 
CCOC(=O)c1nnn([C@H]2CCc3cc(OC)c(OC)c(OC)c3-c3ccc(NC)c(=O)cc32)c1C(=O)OCC [Compound 22] |  | 72 ± 27 | 1.5 | 97 ± 24 | 1.1 | 93 ± 43 | 1.2 | 580 ± 120 |  | 6.0 | 0.2 | 70 to 100 | 
CNc1ccc2c(cc1=O)[C@@H](n1cc(C(=O)OC)nn1)CCc1cc(OC)c(OC)c(OC)c1-2 [Compound 18] | 20 ± 13 | 13 ± 2.3 | 1.5 | 12 ± 4.3 | 1.7 | 12 ± 2.7 | 1.7 | 280 ± 77 |  | 23 | 0.1 | 10 to 25 | 
CNc1ccc2c(cc1=O)[C@@H](n1ccnn1)CCc1cc(OC)c(OC)c(OC)c1-2 [Compound 5] | 11 ± 2.2 | 6.1 ± 1.1 | 1.8 | 5.6 ± 0.6 | 2.0 | 5.6 ± 1 | 2.0 | 55 ± 20 |  | 9.8 | 0.2 | 3.1 to 6.4 | 
CNc1ccc2c(cc1=O)[C@@H](n1cc(CNC(=O)c3ccccc3Cl)nn1)CCc1cc(OC)c(OC)c(OC)c1-2 [Compound 35] | 12 ± 2.9 | 5.7 ± 2 | 2.1 | 6.3 ± 3.1 | 1.9 | 3.8 ± 0.4 | 3.2 | ≤ 1000 | 1000 ± 97 | 160 | <0.1 | 2.7 to 6.3 | 
CNc1ccc2c(cc1=O)[C@@H](n1cc(CNC(=O)C(C)C)nn1)CCc1cc(OC)c(OC)c(OC)c1-2 [Compound 29] | 48 ± 14 | 12 ± 2.4 | 4.0 | 14 ± 2.3 | 3.4 | 12 ± 3.2 | 4.0 | 2700 ± 600 |  | 190 | <0.1 |  | 
CNc1ccc2c(cc1=O)[C@@H](n1cc(CNC(=O)CCC(F)(F)F)nn1)CCc1cc(OC)c(OC)c(OC)c1-2 [Compound 33] | 27 ± 8.7 | 11 ± 0.1 | 2.5 | 11 ± 5.5 | 2.5 | 9.7 ± 3.4 | 2.8 | 3000 ± 800 |  | 270 | <0.1 |  | 
CNc1ccc2c(cc1=O)[C@@H](n1cc(-c3ccc(Cl)cc3)nn1)CCc1cc(OC)c(OC)c(OC)c1-2 [Compound 15] | 92 ± 20 | 39 ± 2.7 | 2.4 | 47 ± 22 | 2.0 | 35 ± 14 | 2.6 | 150 ± 35 |  | 3.2 | 0.6 |  | 
CNc1ccc2c(cc1=O)[C@@H](n1cc(CNC(=O)OC(C)(C)C)nn1)CCc1cc(OC)c(OC)c(OC)c1-2 [Compound 41] | 11 ± 0.8 | 5.4 ± 1.5 | 2.0 | 5.1 ± 0.3 | 2.2 | 3.2 ± 0.6 | 3.4 | 570 ± 120 |  | 110 | <0.1 |  | 
CNc1ccc2c(cc1=O)[C@@H](n1cc(-c3ccccc3)nn1)CCc1cc(OC)c(OC)c(OC)c1-2 [Compound 14] | 20 ± 7.6 | 13 ± 2.6 | 1.5 | 10 ± 0.8 | 2.0 | 10 ± 1.8 | 2.0 | < 30 | 27 ± 7.6 | 2.7 | 0.7 |  | 
